Laboratory results reported in patent publication US5891909A, “Amidinohydrazones as protease inhibitors” (3-Dimensional Pharmaceuticals, Inc., priority 1997, dated 1999).
Structures can show the parent of a compound that is named as a salt.

Target: T1, human α-thrombin (Homo sapiens, UniProt P00734)
T1 construct: Human α-thrombin, human factor Xa and human plasmin were obtained from Enzyme Research Laboratories; purchased Enzyme Research Laboratories (South Bend, Ind.)
Test: Thrombin inhibition, Ki determination (hydrolysis of N-succinyl-Ala-Ala-Pro-Arg-p-nitroanilide)
Format: biochemical
Settings: Table 1; pH 7.5, 37° C.; read-out: Thrombin Ki
From the text: All buffer salts were obtained from Sigma Chemical Company (St. Louis, Mo.), and were of the highest purity available. The enzyme substrates, N-benzoyl-Phe-Val-Arg-p-nitroanilide (Sigma B7632), N-benzoyl-Ile-Glu-Gly-Arg-p-nitroanilide hydrochloride (Sigma B2291), N-p-Tosyl-Gly-Pro-Lys-p-nitroanilide (Sigma T6140), N-succinyl-Ala-Ala-Pro-Phe-p-nitroanilide (Sigma S7388) and N-CBZ-Val-Gly-Arg-p-nitroanilide (Sigma C7271) were obtained from Sigma.
Human α-thrombin, human factor Xa and human plasmin were obtained from Enzyme Research Laboratories (South Bend, Ind.). Bovine α-chymotrypsin (Sigma C4129), bovine trypsin (Sigma T8642) and human kidney cell urokinase (Sigma U5004) were obtained from Sigma. Human leukocyte elastase was obtained from Elastin Products (Pacific, Mo.).
All assays are based on the ability of the test compound to inhibit the enzyme catalyzed hydrolysis of a peptide p-nitroanilide substrate. […] The final concentrations for each of the substrates is listed below. In general, substrate concentrations are lower than the experimentally determined value for Km. Test compounds are prepared as a 1.0 mg/ml solution in DMSO. Dilutions are prepared in DMSO yielding 8 final concentrations encompassing a 200 fold concentration range. Enzyme solutions are prepared at the concentrations listed below in assay buffer.
Data corresponding to less than 10% of the total substrate hydrolysis were used in the calculations. The ratio of the velocity (rate of change in absorbance as a function of time) for a sample containing no test compound is divided by the velocity of a sample containing test compound, and is plotted as a function of test compound concentration. The data are fit to a linear regression, and the value of the slope of the line calculated. The inverse of the slope is the experimentally determined Ki value.
Thrombin activity was assessed as the ability to hydrolyze the substrate N-succinyl-Ala-Ala-Pro-Arg-p-nitroanilide.

Question: For `Cc1cc(OCCC=NNC(=N)N)cc(OS(=O)(=O)c2ccccc2C(F)(F)F)c1` [Example 2, 2-[2-[5-Methyl-3-(2-trifluoromethylphenylsulfonyloxy)phenoxy]ethyl-1-methylene]hydrazinecarboximidamide nitrate], which Ki is on record?
Answer: Its Ki is 8.4 nM.

Question: With `Cc1cc(OCCC=NNC(=N)N)cc(OCc2ccccc2C(F)(F)F)c1` [Example 3, 2-[2-[5-methyl-3-(2-trifluoromethylbenzyloxy)phenoxy]ethyl-1-methylene]hydrazinecarboximidamide nitrate] as the molecule, how does the Ki read?
Answer: The Ki was 465 nM.

Question: Which Ki does the source give for `COc1cc(CCCC=NNC(=N)N)cc(OS(=O)(=O)c2ccccc2Cl)c1` [Example 4, 2-[3-[3-(2-chlorophenylsulfonyloxy)-5-methoxyphenyl]propyl-1-methylene]hydrazinecarboximidamide hydrochloride] here?
Answer: The Ki was 1270 nM.

Question: With `CCOC(=O)CCCCCN(c1cc(C)cc(OCCC=NNC(=N)N)c1)S(=O)(=O)c1ccccc1C(F)(F)F` [Example 5, 2-[2-[(5-methyl-3-(N-(5-ethoxycarbonylpentyl)-N-(2-trifluoromethylphenylsulfonyl)amino)phenoxy]ethyl-1-methylene]hydrazinecarboximidamide nitrate] as the molecule, how does the Ki read?
Answer: The Ki was 26.4 nM.

Question: `Cc1cc(OCCC=NNC(=N)N)cc(OS(=O)(=O)c2cccc(Cl)c2Cl)c1` [Example 6, 2-[2-[3-(2,3-Dichlorophenylsulfonyloxy)-5-methylphenoxy]ethyl-1-methylene]hydrazinecarboximidamide nitrate] was tested. Which Ki did it give?
Answer: The Ki was 13.6 nM.

Question: With `Cc1cc(OCCC=NNC(=N)N)cc(OS(=O)(=O)c2cc(Cl)ccc2Cl)c1` [Example 7, 2-[2-[3-(2,5-Dichlorophenylsulfonyloxy)-5-methylphenoxy]ethyl-1-methylene]hydrazinecarboximidamide nitrate] as the molecule, how does the Ki read?
Answer: Its Ki is 14.9 nM.

Question: With `COc1ccccc1S(=O)(=O)Oc1cc(C)cc(OCCC=NNC(=N)N)c1` [Example 8, 2-[2-[3-(2-Methoxyphenylsulfonyloxy)-5-methylphenoxy]ethyl-1-methylene]hydrazinecarboximidamide acetate] as the molecule, how does the Ki read?
Answer: Its Ki is 6.4 nM.

Question: With `COc1ccc(Br)cc1S(=O)(=O)Oc1cc(C)cc(OCCC=NNC(=N)N)c1` [Example 9, 2-[2-[3-(5-Bromo-2-methoxyphenylsulfonyloxy)-5-methylphenoxy]ethyl-1-methylene]hydrazinecarboximidamide nitrate] as the molecule, how does the Ki read?
Answer: The Ki was 9.4 nM.

Question: Which Ki does the source give for `Cc1cc(OCCC=NNC(=N)N)cc(OS(=O)(=O)c2ccccc2OC(F)(F)F)c1` [Example 10, 2-[2-[5-Methyl-3-(2-trifluoromethoxyphenylsulfonyloxy)phenoxy]ethyl-1-methylene]hydrazinecarboximidamide nitrate] here?
Answer: The Ki was 17.2 nM.

Question: `Cc1cc(OCCC=NNC(=N)N)cc(OS(=O)(=O)c2cccc3nsnc23)c1` [Example 11, 2-[2-[3-(Benzo-2,1,3-thiadiazole-4-sulfonyloxy)-5-methylphenoxy]ethyl-1-methylene]hydrazinecarboximidamide nitrate] was tested. Which Ki did it give?
Answer: The Ki was 29.6 nM.

Question: With `Cc1cc(OCCC=NNC(=N)N)cc(OS(=O)(=O)c2cccc(C)c2)c1` [Example 12, 2-[2-[5-Methyl-3-(3-methylphenylsulfonyloxy)phenoxy]ethyl-1-methylene]hydrazinecarboximidamide nitrate] as the molecule, how does the Ki read?
Answer: Its Ki is 8.9 nM.

Question: With `Cc1cc(OCCC=NNC(=N)N)cc(OS(=O)(=O)c2ccccc2C#N)c1` [Example 13, 2-[2-[3-(2-Cyanophenylsulfonyloxy)-5-methylphenoxy]ethyl-1-methylene]hydrazinecarboximidamide hydrochloride] as the molecule, how does the Ki read?
Answer: The Ki was 14 nM.

Question: `COc1ccc(C)cc1S(=O)(=O)Oc1cc(C)cc(OCCC=NNC(=N)N)c1` [Example 14, 2-[2-[3-(2-Methoxy-5-methylphenylsulfonyloxy)-5-methylphenoxy]ethyl-1-methylene]hydrazinecarboximidamide nitrate] was tested. Which Ki did it give?
Answer: The Ki was 47.5 nM.

Question: How did the Ki turn out when `COc1ccc(OC)c(S(=O)(=O)Oc2cc(C)cc(OCCC=NNC(=N)N)c2)c1` [Example 16, 2-[2-[3-(2,5-Dimethoxyphenylsulfonyloxy)-5-methylphenoxy]ethyl-1-methylene]hydrazinecarboximidamide nitrate] was run?
Answer: The Ki was 21.3 nM.

Question: For `Cc1cc(OCCC=NNC(=N)N)cc(OS(=O)(=O)c2cc(C)ccc2C)c1` [Example 17, 2-[2-[3-(2,5-Dimethylphenylsulfonyloxy)-5-methylphenoxy]ethyl-1-methylene]hydrazinecarboximidamide nitrate], which Ki is on record?
Answer: Its Ki is 6.2 nM.

Question: With `COc1ccc(Cl)cc1S(=O)(=O)Oc1cc(C)cc(OCCC=NNC(=N)N)c1` [Example 18, 2-[2-[3-(5-Chloro-2-methoxyphenylsulfonyloxy)-5-methylphenoxy]ethyl-1-methylene]hydrazinecarboximidamide hydrochloride] as the molecule, how does the Ki read?
Answer: Its Ki is 4.7 nM.

Question: How did the Ki turn out when `Cc1cc(OCCC=NNC(=N)N)cc(OS(=O)(=O)c2c(C)nn(C)c2Cl)c1` [Example 20, 2-[2-[3-(5-chloro-1,3-dimethylpyrazole-4-sulfonyloxy)-5-methylphenoxy]ethyl-1-methylene]hydrazinecarboximidamide acetate] was run?
Answer: Its Ki is 76.2 nM.

Question: Which Ki does the source give for `Cc1cc(OCCC=NNC(=N)N)cc(OS(=O)(=O)c2cccc(Cl)c2)c1` [Example 21, 2-[2-[3-(3-Chlorophenylsulfonyloxy)-5-methylphenoxy]ethyl-1-methylene]hydrazinecarboximidamide nitrate] here?
Answer: The Ki was 3.6 nM.

Question: With `Cc1cc(OCCC=NNC(=N)N)cc(OS(=O)(=O)c2cc([N+](=O)[O-])ccc2C)c1` [Example 22, 2-[2-[5-Methyl-3-(2-methyl-5-nitrophenylsulfonyloxy)phenoxy]ethyl-1-methylene]hydrazinecarboximidamide nitrate] as the molecule, how does the Ki read?
Answer: Its Ki is 63.6 nM.

Question: For `COc1ccccc1S(=O)(=O)Oc1cc(C)cc(OCCCC=NNC(=N)N)c1` [Example 23, 2-[3-[3-(2-Methoxyphenylsulfonyloxy)-5-methylphenoxy]propyl-1-methylene]hydrazinecarboximidamide nitrate], which Ki is on record?
Answer: Its Ki is 1670 nM.

Question: Which Ki does the source give for `Cc1cc(OCCC=NNC(=N)N)cc(OS(=O)(=O)c2cc(F)ccc2C)c1` [Example 24, 2-[2-[3-(5-Fluoro-2-methylphenylsulfonyloxy)-5-methylphenoxy]ethyl-1-methylene]hydrazinecarboximidamide nitrate] here?
Answer: The Ki was 13.5 nM.

Question: With `Cc1cc(OCCC=NNC(=N)N)cc(OS(=O)(=O)c2cccc3ccccc23)c1` [Example 25, 2-[2-[5-Methyl-3-(1-naphthalenylsulfonyloxy)phenoxy]ethyl-1-methylene]hydrazinecarboximidamide nitrate] as the molecule, how does the Ki read?
Answer: The Ki was 63.2 nM.

Question: How did the Ki turn out when `Cc1cc(OCCC=NNC(=N)N)cc(OS(=O)(=O)c2cc(C(F)(F)F)ccc2Cl)c1` [Example 26, 2-[2-[3-(2-Chloro-5-trifluoromethylphenylsulfonyloxy)-5-methylphenoxy]ethyl-1-methylene]hydrazinecarboximidamide nitrate] was run?
Answer: The Ki was 1540 nM.

Question: Which Ki does the source give for `COc1ccc(Cl)cc1S(=O)(=O)Oc1cc(C)cc(OCCC=NNC(=N)NN)c1` [Example 27, 2-Amino-[2-[2-[3-(5-chloro-2-methoxyphenylsulfonyloxy)-5-methylphenoxy]ethyl-1-methylene]hydrazine]carboximidamine acetate] here?
Answer: Its Ki is 298 nM.

Question: `COc1ccc(Cl)cc1S(=O)(=O)Oc1cc(C)cc(OCCC=NN(N)C(=N)N)c1` [Example 28, 1-Amino-2-[2-[3-(5-chloro-2-methoxyphenylsulfonyloxy)-5-methylphenoxy]ethyl-1-methylene]hydrazinecarboximidamine acetate] was tested. Which Ki did it give?
Answer: The Ki was 186 nM.

Question: With `Cc1cc(OCCC=NNC(=N)N)cc(OS(=O)(=O)c2cc(C)ccc2C#N)c1` [Example 30, 2-[2-[3-(2-Cyano-5-methylphenylsulfonyloxy)-5-methylphenoxy]ethyl-1-methylene]hydrazinecarboximidamide nitrate] as the molecule, how does the Ki read?
Answer: The Ki was 33.4 nM.

Question: `Cc1cc(OCCC=NNC(=N)N)cc(N(CCCCc2ccccc2)S(=O)(=O)c2ccccc2C(F)(F)F)c1` [Example 31, 2-[2-[(3-Methyl-5-(N-(4-phenylbutyl)-N-(2-trifluoromethylphenylsulfonyl))amino)phenoxy]ethyl-1-methylene]hydrazinecarboximidamide acetate] was tested. Which Ki did it give?
Answer: Its Ki is 69.2 nM.

Question: `Cc1cc(OCCC=NNC(=N)N)cc(OS(=O)(=O)c2cccc3cnccc23)c1` [Example 32, 2-[2-[3-(5-Isoquinolinylsulfonyloxy)-5-methylphenoxy]ethyl-1-methylene]hydrazinecarboximidamide nitrate] was tested. Which Ki did it give?
Answer: The Ki was 24.9 nM.

Question: With `Cc1cc(OCCC=NNC(=N)N)cc(OS(=O)(=O)c2cccnc2)c1` [Example 34, 2-[2-[5-methyl-3-(3-pyridinylsulfonyloxy)phenoxy]ethyl-1-methylene]hydrazinecarboximidamide diacetate] as the molecule, how does the Ki read?
Answer: The Ki was 56 nM.

Question: `Cc1cc(OCCC=NNC(=N)N)cc(OS(=O)(=O)c2cccc(F)c2)c1` [Example 35, 2-[2-[3-(3-Fluorophenylsulfonyloxy)-5-methylphenoxy]ethyl-1-methylene]hydrazinecarboximidamide nitrate] was tested. Which Ki did it give?
Answer: The Ki was 31 nM.
